{
  "source": "patent EP4817617A1",
  "about": "“LIPOSOME AGENT, NKT CELL ACTIVATOR, PHARMACEUTICAL COMPOSITION, AND USES OF THESE” (Ambicion Co., Ltd., priority 2023, dated 2025)",
  "tested_on": "triple-negative breast cancer 4T1 cells",
  "experiment": "Antitumor effect of α-GalCer liposome against breast cancer by repetitive subcutaneous administration",
  "assay_type": "in vivo, BALB/c mouse",
  "conditions": "s.c. left flank, 4 times every 5 days, α-GalCer 15 µg; n=2 shown",
  "procedure": "The following liposome samples prepared using PBS in Example 1 were used. • (1-2) 50% α-GalCer / negatively charged PEG terminal -OH liposome, 100 nm • (1-11) 0% control / negatively charged PEG terminal -OH liposome, 100 nm The liposome samples were adjusted to a PEGylated liposome concentration of 1 mg/mL (in terms of total lipids), and used as administration samples. PBS was used for the adjustment of the PEGylated liposome concentration. The administration sample prepared from the aforementioned (1-2) was used as the α-GalCer liposome administration sample of the Example (αGal lipo), and the administration sample prepared from the aforementioned (1-11) was used as the control liposome administration sample (Ctrl lipo). In addition, a free GalCer sample (Free αGal) in which free α-GalCer not formulated into a liposome was suspended in PBS, and PBS, were each used as administration samples.\nAs breast cancer cells, triple-negative breast cancer 4T1 cells were used. 4T1 cells (5.0×10^5 to 1.0×10^6 cells/mouse) were subcutaneously inoculated into the vicinity of the second teat from the top of the left chest of a BALB/c mouse (5 weeks old, female, n=2). When the average tumor volume reached 40 to 100 mm^3, the mice were randomly divided into groups. Then, the administration sample was subcutaneously injected into the left flank of the mouse (Day 0). […]",
  "data": [
    {"smiles": "CCCCCCCCCCCCCCCCCCCCCCCCCC(=O)N[C@@H](CO[C@H]1O[C@H](CO)[C@H](O)[C@H](O)[C@H]1O)[C@H](O)[C@H](O)CCCCCCCCCCCCCC", "note": "[α-GalCer, (2S,3S,4R)-1-O-(α-D-galactopyranosyl)-2-hexacosanoylamino-1,3,4-octadecanetriol]", "values": [
      {"measurement": "increase in tumor volume", "result": "suppressed"}
    ]}
  ]
}
